# Where a name gives a salt, the structure may show the parent alone. Read-outs that look alike come from different tables or passages of the source.
# Tests used:
# [1] = test system: NCI-H292 lung cancer cells; test: FDA drug screening, complete media vs cholesterol-free media without statin (TABLE 1); format: cell-based, human
# [2] = test system: NCI-H292 lung cancer cells; test: FDA drug screening, complete media vs cholesterol-free media with simvastatin (TABLE 2); format: cell-based, human
# [3] = Complete minus Cholesterol-free, […]
# [4] = NCI-H292 cells, cholesterol-free media without statin
# [5] = NCI-H292 cells, cholesterol-free media with simvastatin 0.04 μM, […]
# [6] = NCI-H292 cells, complete media, […]
# [7] = complete media minus cholesterol-free media + simvastatin, […]
# [8] = Complete minus Cholesterol-free, >0 enhanced anti-cancer activity, about 0 neutral, <0 antagonist
# [9] = NCI-H292 cells, FDA drug library screen, cholesterol-free media with simvastatin 0.04 μM
# [10] = NCI-H292 cells, FDA drug library screen, complete media
# [11] = complete media minus cholesterol-free media + simvastatin, >0 enhanced anti-cancer activity, about 0 neutral, <0 antagonist
# [12] = NCI-H292 cells, cholesterol-free media without statin, FDA drug library screen
# [13] = NCI-H292 cells, complete media, FDA drug library screen
# [14] = NCI-H292 cells, FDA library drug in cholesterol-free media with simvastatin 0.04 μM
# [15] = NCI-H292 cells, FDA library drug in complete media
# [16] = Complete minus Cholesterol-free, greater than 0 enhanced anti-cancer activity, about 0 neutral, below 0 antagonists
# [17] = NCI-H292 cells in cholesterol-free media without statin
# [18] = NCI-H292 cells in complete media
# [19] = NCI-H292 cells, cholesterol-free media with simvastatin 0.04 μM, cell growth value in FDA drug screen
# [20] = NCI-H292 cells, complete media, cell growth value in FDA drug screen
# [21] = complete vs cholesterol-free media, greater than 0 enhanced anti-cancer activity, about 0 neutral, below 0 antagonists
# [22] = complete media vs cholesterol-free media + simvastatin (0.04 μM), >0 enhanced anti-cancer activity, about 0 neutral, <0 antagonist
# [23] = NCI-H292 cells, cholesterol-free media with simvastatin 0.04 μM, FDA drug library screen (TABLE 2)
# [24] = NCI-H292 cells, complete media, FDA drug library screen (TABLE 2)
# [25] = complete media minus cholesterol-free media + simvastatin (0.04 μM), >0 enhanced anti-cancer activity, about 0 neutral, <0 antagonist
# [26] = Complete minus Cholesterol-free, greater than 0 enhanced anti-cancer activity, about 0 neutral, below 0 antagonist
# [27] = NCI-H292 cells, FDA drug library screen, cholesterol-free media without statin
# [28] = complete vs cholesterol-free media, >0 enhanced anti-cancer activity, about 0 neutral, <0 antagonist
# [29] = NCI-H292 cells, drug in cholesterol-free media with simvastatin 0.04 μM
# [30] = NCI-H292 cells, drug in complete media
compound,measurement,setting,value
COc1ccc2c3c1O[C@H]1C[C@@H](O)C=C[C@@]31CCN(C)C2 [Galanthamine (hydrobromide)],Difference,[1]; [3],−0.25
same,Cholesterol-free,[1]; [4],1.284
same,Complete,"[1]; NCI-H292 cells, complete media",1.033
same,Cholesterol-free media + simvastatin (0.04 μM),[2]; [5],1.411
same,Complete Media,[2]; [6],1.432
same,Difference,[2]; [7],0.02
COc1ccc2c(c1OC)C(=O)O[C@@H]2[C@H]1c2c(cc3c(c2OC)OCO3)CCN1C [Noscapine],Difference,[1]; [8],−0.20
same,Cholesterol-free,[1]; [4],1.288
same,Complete,"[1]; NCI-H292 cells, complete media",1.088
same,Cholesterol-free media + simvastatin (0.04 μM),[2]; [9],0.7586
same,Complete Media,[2]; [10],1.21
same,Difference,[2]; [11],0.45
Hyaluronidase,Difference,[1]; [3],−0.05
same,Cholesterol-free,[1]; [12],0.9036
same,Complete,[1]; [13],0.8508
same,Cholesterol-free media + simvastatin (0.04 μM),[2]; [14],1.288
same,Complete Media,[2]; [15],1.022
same,Difference,"[2]; complete media vs cholesterol-free media + simvastatin (0.04 μM), […]",−0.27
NC(=O)[C@@H]1C[C@]2(NC(=O)NC2=O)c2cc(F)ccc2O1 [Fidarestat],Cholesterol-free,[1],1.491
same,Complete,[1],0.686
same,Difference,[1],−0.80
same,Cholesterol-free media + simvastatin (0.04 μM),[2],1.63
same,Complete Media,[2],1.736
same,Difference,[2],0.11
N[C@@H](Cc1c[nH]cn1)C(=O)O [L-Histidine],Difference,[1]; [16],−0.88
same,Cholesterol-free,[1]; [17],2.131
same,Complete,[1]; [18],1.254
same,Cholesterol-free media + simvastatin (0.04 μM),[2]; [19],1.86
same,Complete Media,[2]; [20],1.878
same,Difference,[2]; [11],0.02
CN1CC(=O)N2[C@H](c3ccc4c(c3)OCO4)c3[nH]c4ccccc4c3C[C@@H]2C1=O [Tadalafil],Cholesterol-free,[1]; [4],1.298
same,Complete,"[1]; NCI-H292 cells, complete media",0.971
same,Difference,[1]; [21],−0.33
same,Cholesterol-free media + simvastatin (0.04 μM),[2]; [9],1.05
same,Complete Media,[2]; [10],0.9711
same,Difference,[2]; [22],−0.08
CC(=O)Oc1ccc(C(c2ccc(OC(C)=O)cc2)c2ccccn2)cc1 [Bisacodyl],Difference,[1]; [8],−0.04
same,Cholesterol-free,[1]; [12],0.799
same,Complete,[1]; [13],0.7553
same,Cholesterol-free media + simvastatin (0.04 μM),[2]; [23],0.934
same,Complete Media,[2]; [24],0.9483
same,Difference,[2]; [25],0.01
CN1C(CCl)Nc2cc(Cl)c(S(N)(=O)=O)cc2S1(=O)=O (centres unmarked) [Methyclothiazide],Difference,[1]; [8],−0.24
same,Cholesterol-free,[1]; [4],1.096
same,Complete,"[1]; NCI-H292 cells, complete media",0.856
same,Cholesterol-free media + simvastatin (0.04 μM),[2]; [23],1.147
same,Complete Media,[2]; [24],1.081
same,Difference,[2]; [25],−0.07
CCOC(=O)C1=C[C@]2(CC)CCCN3CCc4c(n1c1ccccc41)[C@@H]32 [Vinpocetine],Difference,[1]; [26],−0.09
same,Cholesterol-free,[1]; [27],0.912
same,Complete,[1]; [10],0.8209
same,Cholesterol-free media + simvastatin (0.04 μM),[2]; [19],0.854
same,Complete Media,[2]; [20],0.8952
same,Difference,[2]; [11],0.04
Oc1cc(Cl)ccc1Oc1ccc(Cl)cc1Cl [Triclosan],Difference,[1]; [3],−0.91
same,Cholesterol-free,[1]; [17],1.986
same,Complete,[1]; [18],1.081
same,Cholesterol-free media + simvastatin (0.04 μM),[2]; [5],1.015
same,Complete Media,[2]; [6],1.093
same,Difference,[2]; [7],0.08
C[N+]1(C)[C@@H]2CC[C@H]1C[C@@H](OC(=O)C(CO)c1ccccc1)C2 (some centres unmarked) [Atropine methyl bromide],Cholesterol-free,[1]; [12],1.114
same,Complete,[1]; [13],1.708
same,Difference,[1]; [28],0.59
same,Cholesterol-free media + simvastatin (0.04 μM),[2]; [29],1.143
same,Complete Media,[2]; [30],0.9562
same,Difference,[2]; [22],−0.19
Cn1c(=O)c2c(ncn2CC2OCCO2)n(C)c1=O [Doxofylline],Cholesterol-free,[1]; [4],1.338
same,Complete,"[1]; NCI-H292 cells, complete media",0.9897
same,Difference,[1]; [21],−0.35
same,Cholesterol-free media + simvastatin (0.04 μM),[2]; [14],1.302
same,Complete Media,[2]; [15],1.024
same,Difference,[2]; [22],−0.28
O=C1CCC(N2C(=O)c3ccccc3C2=O)C(=O)N1 (centres unmarked) [Thalidomide],Difference,[1]; [16],−0.92
same,Cholesterol-free,[1]; [17],1.865
same,Complete,[1]; [18],0.9496
same,Cholesterol-free media + simvastatin (0.04 μM),[2]; [29],1.184
same,Complete Media,[2]; [30],1.013
same,Difference,[2]; [22],−0.17
CC(=O)OCC[N+](C)(C)C.[Cl-] [Acetylcholine (chloride)],Cholesterol-free,[1]; [12],1.32
same,Complete,[1]; [13],1.724
same,Difference,[1]; [28],0.40
same,Cholesterol-free media + simvastatin (0.04 μM),[2]; [29],0.9864
same,Complete Media,[2]; [30],0.8029
same,Difference,[2]; [22],−0.18
N#Cc1cc(NC(=O)C(=O)O)c(Cl)c(NC(=O)C(=O)O)c1 [Lodoxamide],Difference,[1]; [8],−0.26
same,Cholesterol-free,[1]; [4],1.144
same,Complete,"[1]; NCI-H292 cells, complete media",0.8858
same,Cholesterol-free media + simvastatin (0.04 μM),[2]; [29],1.021
same,Complete Media,[2]; [30],0.7589
same,Difference,[2]; [22],−0.26
C=CCCCCCCCCC(=O)O [10-Undecenoic acid (zinc salt)],Difference,[1]; [8],−0.19
same,Cholesterol-free,[1]; [4],1.263
same,Complete,"[1]; NCI-H292 cells, complete media",1.076
same,Cholesterol-free media + simvastatin (0.04 μM),[2]; [14],1.561
same,Complete Media,[2]; [15],1.235
same,Difference,[2]; [22],−0.33
COc1cc2nc(N3CCN(C(=O)c4ccco4)CC3)nc(N)c2cc1OC [Prazosin (hydrochloride)],Difference,[1]; [16],−0.52
same,Cholesterol-free,[1]; [17],1.627
same,Complete,[1]; [18],1.105
same,Cholesterol-free media + simvastatin (0.04 μM),[2]; [9],1.23
same,Complete Media,[2]; [10],1.079
same,Difference,[2]; [22],−0.15
CC1CNc2c(cccc2S(=O)(=O)N[C@@H](CCCNC(=N)N)C(=O)N2CC[C@@H](C)C[C@@H]2C(=O)O)C1 (some centres unmarked) [Argatroban (monohydrate)],Difference,[1]; [26],−0.08
same,Cholesterol-free,[1]; [27],1.232
same,Cholesterol-free media + simvastatin (0.04 μM),[2]; [29],1.179
same,Complete Media,[2]; [30],0.9367
same,Difference,[2]; [22],−0.24
CC1Cc2ccccc2N1NC(=O)c1ccc(Cl)c(S(N)(=O)=O)c1 (centres unmarked) [Indapamide],Difference,[1]; [16],−0.63
same,Cholesterol-free,[1]; [17],1.388
same,Complete,[1]; [18],0.7593
same,Cholesterol-free media + simvastatin (0.04 μM),[2]; [29],1.217
same,Complete Media,[2]; [30],0.9676
same,Difference,[2]; [22],−0.25
O=C1c2cccc3c2[C@H](CCC3)CN1[C@@H]1CN2CCC1CC2 [Palonosetron (Hydrochloride)],Cholesterol-free,[1]; [4],1.075
same,Complete,"[1]; NCI-H292 cells, complete media",0.7009
same,Difference,[1]; [21],−0.37
same,Cholesterol-free media + simvastatin (0.04 μM),[2]; [29],1.184
same,Complete Media,[2]; [30],0.927
same,Difference,[2]; [22],−0.26
Cc1cccc(C)c1OCC(=O)N[C@@H](Cc1ccccc1)[C@@H](O)C[C@H](Cc1ccccc1)NC(=O)[C@H](C(C)C)N1CCCNC1=O [Lopinavir],Cholesterol-free,[1]; [4],1.281
same,Complete,"[1]; NCI-H292 cells, complete media",0.8723
same,Difference,[1]; [21],−0.41
same,Cholesterol-free media + simvastatin (0.04 μM),[2]; [9],1.549
same,Complete Media,[2]; [10],1.393
same,Difference,[2]; [22],−0.16
O=C(O)/C=C/c1ccc(Cn2ccnc2)cc1 [Ozagrel (hydrochloride)],Cholesterol-free,[1]; [12],0.9304
same,Complete,[1]; [13],1.021
same,Difference,[1]; [28],0.09
same,Cholesterol-free media + simvastatin (0.04 μM),[2]; [9],1.247
same,Complete Media,[2]; [10],1.131
same,Difference,[2]; [22],−0.12
C[C@@H]1CC(=O)NN=C1c1ccc(NN=C(C#N)C#N)cc1 [Levosimendan],Difference,[1]; [8],−0.06
same,Cholesterol-free,[1]; [12],1.195
same,Complete,[1]; [13],1.131
same,Cholesterol-free media + simvastatin (0.04 μM),[2]; [9],1.165
same,Complete Media,[2]; [10],1.044
same,Difference,[2]; [22],−0.12
